Data: PMC6265740, “Biochemical and Anti-Triple Negative Metastatic Breast Tumor Cell Properties of Psammaplins” (Marine Drugs, 2018)
“Also recorded” adds a separate entry of the source.

Legend:
VEGF mRNA = assay: Quantitative real time RT-PCR of VEGF mRNA in T47D cells; type: cell-based, human; details: 16 h; for effect on the levels of VEGF mRNA: concentrations tested
Excerpt: (§1) Around 100 genes have been identified as HIF-1 target genes that encode proteins involved in various aspects of cellular physiology. While most of these genes are regulated in a cell type-specific manner, some are induced upon HIF-1 activation in most cell types. Based on availability and potency, compound 4 (a stereoisomer of 2) was selected for follow-up studies. The effects of 4 on the expression of HIF-1 target genes cyclin dependent kinase inhibitor 1A (CDKN1A) and vascular endothelial growth factor A (VEGFA) were examined by quantitative real time RT-PCR (Figure 2). The HIF-1 activator 1,10-phen (10 μM) and the pan-HDAC inhibitor TSA (0.1 and 1 μM, respectively) were included as positive controls. In T47D cells, 4 and TSA each increased the levels of CDKN1A mRNA in a concentration-dependent manner (2.9-fold for 4 at 10 μM and 7.2-fold for TSA at 1 μM, Figure 2A). In contrast, neither 4 nor TSA exerted greater than 20% effect on the levels of VEGF mRNA (Figure 2B). […]
(§2) Figure 2 Effects of 4 and trichostatin A (TSA) on HIF-1 target gene expression. […] The levels of cyclin dependent kinase inhibitor 1A (CDKN1A) (A) and vascular endothelial growth factor (VEGF) (B) mRNA following treatments were determined by quantitative real time RT-PCR. […] The levels of cellular (C) and secreted VEGF protein (D) were determined by ELISA and normalized to the amount of cellular proteins. […]
(§3) The effects of test samples on HIF-1 target gene expression were assessed in T47D cells. To determine the levels of CDKN1A and VEGF mRNA, quantitative real-time RT-PCR was performed as described. To determine the levels of cellular and secreted VEGF proteins, T47D cells were exposed to compounds as described, the levels of VEGF proteins in the conditioned medium and cell lysate samples determined by ELISA [21], the amount of proteins in the cell lysate samples quantified using a micro BCA assay kit (Thermo Fisher Scientific, Rockford, IL, USA), and the level of VEGF proteins normalized to that of cellular proteins.

VEGF protein = assay: ELISA of cellular and secreted VEGF proteins in T47D cells; type: cell-based, human; details: normalized to cellular proteins
Excerpt: Around 100 genes have been identified as HIF-1 target genes that encode proteins involved in various aspects of cellular physiology. While most of these genes are regulated in a cell type-specific manner, some are induced upon HIF-1 activation in most cell types. Based on availability and potency, compound 4 (a stereoisomer of 2) was selected for follow-up studies. The effects of 4 on the expression of HIF-1 target genes cyclin dependent kinase inhibitor 1A (CDKN1A) and vascular endothelial growth factor A (VEGFA) were examined by quantitative real time RT-PCR (Figure 2). The HIF-1 activator 1,10-phen (10 μM) and the pan-HDAC inhibitor TSA (0.1 and 1 μM, respectively) were included as positive controls. In T47D cells, 4 and TSA each increased the levels of CDKN1A mRNA in a concentration-dependent manner (2.9-fold for 4 at 10 μM and 7.2-fold for TSA at 1 μM, Figure 2A). In contrast, neither 4 nor TSA exerted greater than 20% effect on the levels of VEGF mRNA (Figure 2B). The gene VEGF encodes vascular endothelial growth factor A (a potent angiogenic factor) and agents that inhibit VEGF are in clinical use for cancer. The expression of cellular and secreted VEGF proteins was examined in T47D cells by ELISA assay.
Figure 2 Effects of 4 and trichostatin A (TSA) on HIF-1 target gene expression. T47D cells were exposed to 4 and TSA at the specified concentrations for 16 h. The compound 1,10-phen (10 µM) was included as a positive control. The levels of cyclin dependent kinase inhibitor 1A (CDKN1A) (A) and vascular endothelial growth factor (VEGF) (B) mRNA following treatments were determined by quantitative real time RT-PCR. Relative levels of target gene mRNA normalized to an internal control (18S rRNA) are shown as average ± standard deviation (n = 3, one representative experiment). The levels of cellular (C) and secreted VEGF protein (D) were determined by ELISA and normalized to the amount of cellular proteins. Data shown are average + standard deviation (n = 3). An asterisk “*” indicates p < 0.05 when compared to the media control.
as §3

BoM spheroids = assay: Cultrex 3D spheroid cell invasion assay; type: cell-based, human; details: for invasion of BoM spheroids into the extracellular matrix: 96 h (T96), 4 and TSA at 48 h proliferation IC50
Method: In order to form metastatic lesions, metastasis-initiating tumor cells must invade and intravasate into the lymphatic vasculature and/or blood vessels. Psammaplins were evaluated in a Cultrex® 3-D cell invasion assay that monitors the invasion and migration of tumor cells grown as spheroids, which closely model in vivo pathophysiological conditions.
Figure 5 Inhibition of bone metastatic BoM cell invasion. Tumor cell spheroids formed in a special spheroid formation extracellular matrix (ECM) were embedded in an invasion matrix containing 10% fetal bovine serum (FBS) in the presence and absence of compounds at the specified concentrations. Four days later (T96), cell invasion was recorded microscopically (the bar at the bottom right represents 100 µm).
The 3D spheroid cell invasion assay was performed using a commercial kit, following the manufacturer’s instructions (Cultrex® 3D Spheroid Cell Invasion Assay, Trevigen, Gaithersburg, MD, USA). Briefly, exponentially grown MDA-MB-231, LM, BoM, and BrM cells were trypsinized, collected, and resuspended in serum-free DMEM/F12 media. For spheroid formation, 3000 cells were added in a volume of 50 µL serum-free DMEM/F12 media with 1× spheroid formation solution/well into a pre-cooled 96-well plate. The plate was centrifuged at 100× g for 5 min at 4 °C, incubated at 37 °C for 24 h, and the spheroids imaged using an Axiovert 40 CFL microscope (Zeiss, Oberkochen, Germany). The plate was placed on ice, the invasion mix added in a volume of 50 µL/well, centrifuged at 350× g for 5 min at 4 °C, and incubated at 37 °C for 1 h. Test compounds and controls were diluted to two times the final concentrations in DMEM/F12 media supplemented with FBS (10%) and antibiotics, and added in a volume of 100 µL/well. The incubation continued for another 4 days at 37 °C and the cells/spheroids imaged (T96).

HDAC = assay: MDA-MB-435 cell-based HDAC assay (HDAC-Glo); details: MDA-MB-435 cells, 30 min incubation, n = 6 pooled from two experiments
Method: Test compounds were added at specified concentrations to exponentially grown cells plated in 96-well plates. After 30 min incubation, the HDAC activity was determined using a commercial kit (HDAC-Glo™, Promega, Madison, WI, USA) and normalized to that of the dimethyl sulfoxide (DMSO) solvent control.
Exponentially grown cells were seeded at the density of 5000 cells/well into 96-well plates (Corning, Corning, NY, USA) and incubated overnight. Compounds dissolved in DMSO were added to achieve the specified final concentrations (total volume: 100 μL, DMSO: 0.5%). The incubation continued for 30 min at 37 °C and the HDAC activity determined using a commercial luminescent assay (HDAC-Glo™, Promega, Madison, WI, USA).

HIF-1 = assay: T47D cell-based reporter assay (pHRE-luc) for HIF-1 activity; parameters: species or system human; details: for normalized ratio of pHRE-luc/pGL3-control: T47D
Method: Cellular adaptation to hypoxia (low oxygen tension) is primarily mediated via the transcription factor hypoxia-inducible factor-1 (HIF-1), that regulates oxygen homeostasis by activating the expression of genes that increase oxygen availability and those that decrease oxygen consumption. […] In a T47D cell-based reporter assay, a lipid extract sample of the sponge Dendrilla lacunosa activated HIF-1 by 3.56-fold (NIH collection No. C025691, 10 μg mL^−1). Bioassay-guided fractionation of the extract sample (2.6 g) and chemical structure elucidation afforded five known compounds psammaplin E (1), (E,Z)-psammaplin A (2), (E,E)-psammaplin K (3), (E,E)-psammaplin A (4), and bisaprasin (5). To determine the effects of 1–5 on HIF-1 activity, concentration-response studies were performed in a T47D cell-based reporter assay (Figure 1B). An iron chelator (1,10-phenanthroline, 10 μM) was included as a positive control. Compounds 1–4 activated HIF-1 in a biphasic manner. […] Hypoxia (1% O2) and chemical hypoxia (iron chelators or transition metals) represent two common stimuli that activate HIF-1 [24, 25, 26]. Further studies were performed to determine the effects of 1–5 on HIF-1 activity in the presence of other stimuli (1,10-phenanthroline, Figure 1C; hypoxia, Figure 1D). While 1–4 acted synergistically with 1,10-phenanthroline and hypoxia to activate HIF-1, a biphasic pattern of activation similar to that in the absence of stimulus […] was observed. […] Previous studies reported that psammaplins inhibit histone deacetylase (HDAC) enzymes. To determine if HDAC inhibition non-specifically activates HIF-1, concentration-response studies were conducted in T47D cells transfected with the pGL3-control plasmid. […] One possible scenario is that these compounds incur significant amount of cellular stress at higher concentrations, leading to the inhibition of gene expression in general.
Figure 1 Concentration-dependent biphasic effects of 1–4 on HIF-1 activation. (A) Structures of psammaplins isolated from Dendrilla lacunosa. (B) Concentration-response results of 1–5 in T47D cells transfected with pHRE-luc for HIF-1 activity. Test compounds were added at the increasing concentrations of 0.1, 0.3, 1, 3, 10, and 30 µM, as specified. The positive control 1,10-phenanthroline (1,10-phen) was used at 10 µM. Data shown are average ± standard deviation (n = 3). (C) Similar to described in (B) except that the pHRE-luc transfected T47D cells were exposed to test compounds in the presence of 10 µM 1,10-phen, and the data were normalized to the positive control (1,10-phen). (D) Similar to described in (C) except that hypoxic exposure (1% O2: 5% CO2: 94% N2, 16 h) was applied in place of 1,10-phen. (E) As described in (B) except that T47D cells were transfected with the pGL3-control construct. An asterisk “*” indicates p < 0.05 when compared to the controls (“Media” for B, D, and E; and “1,10-phen” for C).
To monitor HIF-1 activity, T47D cells were transfected with the pHRE3-TK-Luc construct and the cell-based luciferase reporter assay was performed as described. Cells were exposed to test compounds in the absence and presence of 1,10-phenanthroline (10 μM) or hypoxic conditions (1% O2: 5% CO2: 94% N2) for 16 h. The cells were lysed and luciferase activity determined with a commercial kit (Promega, Madison, WI, USA). For the cell-based control reporter assay, T47D cells were transfected with the pGL3-control construct (Promega, Madison, WI, USA), exposed to test compounds for 16 h, and the luciferase reporter assay performed as described.

CDKN1A mRNA = assay: Quantitative real time RT-PCR of CDKN1A mRNA in T47D cells; type: cell-based, human; details: 16 h
Excerpt: as §1, with “controls.” for “controls. In T47D cells, 4 and TSA each increased the levels of CDKN1A mRNA in a concentration-dependent manner (2.9-fold for 4 at 10 μM and 7.2-fold for TSA at 1 μM, Figure 2A). In contrast, neither 4 nor TSA exerted greater than 20% effect on the levels of VEGF mRNA (Figure 2B).”
as §2
The effects of test samples on HIF-1 target gene expression were assessed in T47D cells. To determine the levels of CDKN1A and VEGF mRNA, quantitative real-time RT-PCR was performed as described. […]

[1] = T47D pHRE-luc, 10 μM, 16 h, no stimulus, n = 3
[2] = T47D pHRE-luc, 3 μM, 16 h, no stimulus, n = 3

Structure (SMILES): c1cnc2c(c1)ccc1cccnc12 [1,10-phen, 1,10-phenanthroline]
- VEGF expression, mRNA (VEGF mRNA; 10 μM): induced VEGF expression
- VEGF expression, cellular protein (VEGF protein): induced VEGF expression
- VEGF expression, secreted protein (VEGF protein): induced VEGF expression

Structure (SMILES): C[C@@H]1C[C@@H]([C@H](O)CC2CC(=O)NC(=O)C2)C(=O)[C@@H](C)C1 [CHX, cycloheximide]
- size of the spheroids (BoM spheroids; 96 h, in comparison to the HDAC inhibitors): more pronounced decrease in the size of the spheroids

Structure (SMILES): NC(=O)C(=O)NCCSSCCNC(=O)/C(Cc1ccc(O)c(Br)c1)=N/O [Compound 1, psammaplin E]
- IC50 (HDAC): 257 nM
- HIF-1 activation (highest level) (HIF-1; [1]): 12.01 ± 1.12 fold
- normalized ratio of pHRE-luc/pGL3-control (HIF-1; 10 μM): 2.64 fold

Structure (SMILES): O=C(NCCSSCCNC(=O)C(Cc1ccc(O)c(Br)c1)=NO)C(Cc1ccc(O)c(Br)c1)=NO [Compound 2, (E,Z)-psammaplin A]
- IC50 (HDAC): 19 nM
- HIF-1 activation (highest level) (HIF-1; [2]): 12.32 ± 0.70 fold
- normalized ratio of pHRE-luc/pGL3-control (HIF-1; 3 μM): 2.38 fold

Structure (SMILES): O=C(NCCSSCCNC(=O)/C(Cc1cc(O)c(O)c(Br)c1)=N/O)/C(Cc1ccc(O)c(Br)c1)=N/O [Compound 3, (E,E)-psammaplin K]
- IC50 (HDAC): 38 nM
- HIF-1 activation (highest level) (HIF-1; [1]): 10.15 ± 0.66 fold
- normalized ratio of pHRE-luc/pGL3-control (HIF-1; 10 μM): 2.38 fold

Structure (SMILES): O=C(NCCSSCCNC(=O)/C(Cc1ccc(O)c(Br)c1)=N/O)/C(Cc1ccc(O)c(Br)c1)=N/O [Compound 4, (E,E)-psammaplin A]
- increase in CDKN1A mRNA level (CDKN1A mRNA; 10 μM): 2.9 fold
- invasion of BoM spheroids into the extracellular matrix (BoM spheroids): inhibited the invasion of BoM spheroids; also recorded: inhibited this invasion
- IC50 (HDAC): 37 nM
- HIF-1 activation (highest level) (HIF-1; [2]): 11.01 ± 0.71 fold
- normalized ratio of pHRE-luc/pGL3-control (HIF-1; 3 μM): 2.30 fold
- effect on the levels of VEGF mRNA (VEGF mRNA): ≤ 20%
- VEGF expression, cellular protein (VEGF protein): None of the HDAC inhibitors examined (4 and TSA) increased VEGF protein levels
- VEGF expression, secreted protein (VEGF protein): None of the HDAC inhibitors examined (4 and TSA) increased VEGF protein levels

Structure (SMILES): O=C(NCCSSCCNC(=O)/C(Cc1cc(Br)c(O)c(-c2cc(C/C(=N\O)C(=O)NCCSSCCNC(=O)/C(Cc3ccc(O)c(Br)c3)=N/O)cc(Br)c2O)c1)=N/O)/C(Cc1ccc(O)c(Br)c1)=N/O [Compound 5, bisaprasin]
- IC50 (HDAC): 948 nM
- HIF-1 activation (HIF-1; T47D pHRE-luc, 30 μM, 16 h, no stimulus, n = 3): 2.17 ± 0.13 fold
- effect on HIF-1 activity in the presence of other stimuli (HIF-1; T47D pHRE-luc, with 1,10-phenanthroline (10 µM) or hypoxia (1% O2), 16 h): inhibited HIF-1 activation at higher concentrations

Structure (SMILES): CC(/C=C/C(=O)NO)=C\[C@@H](C)C(=O)c1ccc(N(C)C)cc1 [TSA, trichostatin A]
- increase in CDKN1A mRNA level (CDKN1A mRNA; 1 μM): 7.2 fold
- invasion of BoM spheroids into the extracellular matrix (BoM spheroids): inhibited the invasion of BoM spheroids
- effect on the levels of VEGF mRNA (VEGF mRNA): ≤ 20%
- VEGF expression, cellular protein (VEGF protein): None of the HDAC inhibitors examined (4 and TSA) increased VEGF protein levels
- VEGF expression, secreted protein (VEGF protein): None of the HDAC inhibitors examined (4 and TSA) increased VEGF protein levels
